Test results taken from patent US5086042A, “Peptides with sulfate ester groups” (Fisons Corporation, priority 1989, dated 1992).
Values joined by “and” are separate entries in the source; they are usually repeats but may differ in a detail not shown here. Equal entries are not always repeated. Non-standard residues stand in square brackets, D forms with d. Residues, ends and D or L forms follow the SMILES beside them. sY = N[C@@H](Cc1ccc(OS(=O)(=O)O)cc1)C(=O)O

Test system: Male Sprague-Dawley rats
Assay type: in vivo
Settings: rat, intraperitoneal; for % FEEDING INHIBITION 0.5 hr / % FEEDING INHIBITION 3 hr: 30 μg/kg, vs saline controls; for % FEEDING INHIBITION 0.5 hr / % FEEDING INHIBITION 0.5 hr (values marked *) / feeding inhibition during the 0.5 hour feeding period: 0.5 hr feeding period; for % FEEDING INHIBITION 3 hr (values marked *) / % FEEDING INHIBITION 0.5 hr (values marked *): 300 μg/kg, <10% inhibition at 30 μg/kg; for % FEEDING INHIBITION 3 hr (values marked *) / % FEEDING INHIBITION 3 hr / feeding inhibition during the 3 hour feeding period: 3 hr feeding period; for % FEEDING INHIBITION 3 hr: IA means inactive; for feeding inhibition during the 0.5 hour feeding period: 0.3 μg/kg; for feeding inhibition during the 3 hour feeding period: 3 μg/kg
Experimental: The peptides of this invention have the ability to inhibit feeding activity in mammals. As a result they have utility in the prevention and treatment of obesity.
Male Sprague-Dawley rats (weighing 300-350 g) are individually caged and maintained on a 12 hr. light, dark cycle and trained for at least 14 days to feed during a three hr period of the dark cycle but not the 21 hours preceding that three hr period. The day of the study, rats are dosed intraperitoneally with saline (controls) or test compound (dissolved in saline; usually at a concentration of 0.3 to 300 micrograms of test compound per kg of rat weight). Food is introduced 10 minutes after administration of saline or test compound. […] The % feeding inhibition for the 1/2 hr and 3 hr feeding periods obtained by administering a dose of 30 μg/kg of test compound is given in Table 2 for CCK-8 and various compounds of the invention. For example, the % feeding inhibition obtained with CCK-8 (first line of Table 2) was 70% for the 1/2 hr feeding period and 25% for the 3-hour period.

CSCC[C@H](NC(=O)[C@H](Cc1c[nH]c2ccccc12)NC(=O)[C@@H](C)NC(=O)[C@H](CCSC)NC(=O)[C@H](Cc1ccc(OS(=O)(=O)O)cc1)NC(=O)[C@@H](N)CC(=O)O)C(=O)N[C@@H](CC(=O)O)C(=O)N[C@@H](Cc1ccccc1)C(N)=O [H-Asp-Tyr(SO3 H)-Met-DAla-Trp-Met-Asp-Phe-NH2] (HELM PEPTIDE1{D.[O=C([C@H](Cc1ccc(OS(=O)(=O)O)cc1)N[*:1])[*:2]].M.[dA].W.M.D.F.[am]}$$$$V2.0)
% FEEDING INHIBITION 0.5 hr: 16%
% FEEDING INHIBITION 3 hr (values marked *): 18%

CNC(=O)[C@H](Cc1ccccc1)NC(=O)[C@H](CC(=O)O)NC(=O)[C@H](CCSC)NC(=O)[C@H](Cc1c[nH]c2ccccc12)NC(=O)CNC(=O)[C@H](CCSC)NC(=O)[C@H](Cc1ccc(OS(=O)(=O)O)cc1)NC(=O)[C@@H](N)CC(=O)O [H-Asp-Tyr(SO 3 H)-Met-Gly-Trp-Met-Asp-Phe-NHMe]
% FEEDING INHIBITION 0.5 hr (values marked *): 13%

NCCCC[C@H](NC(=O)[C@H](Cc1ccc(OS(=O)(=O)O)cc1)NC(=O)[C@@H](N)CC(=O)O)C(=O)NCC(=O)N[C@@H](Cc1c[nH]c2ccccc12)C(=O)N[C@@H](CCCCN)C(=O)N[C@@H](CC(=O)O)C(=O)N[C@@H](Cc1ccccc1)C(N)=O [H-Asp-Tyr(SO3 H)-Lys-Gly-Trp-Lys-Asp-Phe-NH2] (HELM PEPTIDE1{D.[O=C([C@H](Cc1ccc(OS(=O)(=O)O)cc1)N[*:1])[*:2]].K.G.W.K.D.F.[am]}$$$$V2.0)
% FEEDING INHIBITION 0.5 hr (values marked *): 45%

H-Asp-Tyr(SO3 H)-Met-Gly-Trp-Ahx-Asp-Phe-NH2
% FEEDING INHIBITION 0.5 hr: 82%
% FEEDING INHIBITION 3 hr: 23%

CSCC[C@H](NC(=O)[C@H](Cc1ccc(OS(=O)(=O)O)cc1)NC(=O)[C@@H](N)CC(=O)O)C(=O)NCC(=O)N[C@@H](Cc1c[nH]c2ccccc12)C(=O)N[C@@H](CCSC)C(=O)N[C@@H](CC(=O)O)C(=O)N[C@@H](Cc1ccc(Cl)cc1)C(N)=O [H-As-Tyr(SO3 H)-Met-Gly-Trp-Met-Asp-Phe(4-Cl)-NH2]
% FEEDING INHIBITION 0.5 hr: 54%
% FEEDING INHIBITION 3 hr (values marked *): 28%

CC[C@H](C)[C@H](NC(=O)[C@H](Cc1ccc(OS(=O)(=O)O)cc1)NC(=O)[C@@H](N)CC(=O)O)C(=O)NCC(=O)N[C@@H](Cc1c[nH]c2ccccc12)C(=O)N[C@H](C(=O)N[C@@H](CC(=O)O)C(=O)N[C@@H](Cc1ccccc1)C(N)=O)[C@@H](C)CC [H-Asp-Tyr(SO3 H)-Ile-Gly-Trp-Ile-Asp-Phe-NH2] (HELM PEPTIDE1{D.[O=C([C@H](Cc1ccc(OS(=O)(=O)O)cc1)N[*:1])[*:2]].I.G.W.I.D.F.[am]}$$$$V2.0)
% FEEDING INHIBITION 0.5 hr: 85%
% FEEDING INHIBITION 3 hr: 20%

COc1ccc(C[C@H](NC(=O)[C@H](CC(=O)O)NC(=O)[C@H](CCSC)NC(=O)[C@H](Cc2c[nH]c3ccccc23)NC(=O)CNC(=O)[C@H](CCSC)NC(=O)[C@H](Cc2ccc(OS(=O)(=O)O)cc2)NC(=O)[C@@H](N)CC(=O)O)C(N)=O)cc1 [H-Asp-Tyr(SO3 H)-Met-Gly-Trp-Met-Asp-Tyr(Me)-NH2] (H-D[sY]MGWMDY(Me)-NH2)
% FEEDING INHIBITION 0.5 hr (values marked *): 72%

CSCC[C@H](NC(=O)[C@H](Cc1ccc(OS(=O)(=O)O)cc1)NC(=O)[C@@H](N)CC(=O)O)C(=O)NCC(=O)N[C@@H](Cc1c[nH]c2ccccc12)C(=O)N[C@@H](CCSC)C(=O)N[C@@H](CC(=O)O)C(=O)N[C@@H](Cc1ccc(N)cc1)C(N)=O [H-Asp-Tyr(SO3 H)-Met-Gly-Trp-Met-Asp-Phe(4-NH2)-NH2]
% FEEDING INHIBITION 0.5 hr: 27%

CSCC[C@H](NC(=O)[C@H](Cc1c[nH]c2ccccc12)NC(=O)[C@@H](C)NC(=O)[C@H](CCSC)NC(=O)[C@H](Cc1ccc(OS(=O)(=O)O)cc1)NC(=O)CCC(=O)O)C(=O)N[C@@H](CC(=O)O)C(=O)N[C@@H](Cc1ccccc1)C(N)=O [Suc-Tyr(SO3 H)-Met-DAla-Trp-Met-Asp-Phe-NH2] (HELM PEPTIDE1{[O=C(O)CCC(=O)[*:2]].[O=C([C@H](Cc1ccc(OS(=O)(=O)O)cc1)N[*:1])[*:2]].M.[dA].W.M.D.F.[am]}$$$$V2.0)
% FEEDING INHIBITION 0.5 hr: 75%
% FEEDING INHIBITION 3 hr: 30%

Suc-Tyr(SO3 H)-Ahx-Gly-Trp-Ahx-Asp-Phe-NH2
feeding inhibition during the 0.5 hour feeding period: 20-72%
feeding inhibition during the 3 hour feeding period: 50-90%
% FEEDING INHIBITION 0.5 hr: 100%
% FEEDING INHIBITION 3 hr: 97%

Hpp(SO3 sH)-Ahx-Gly-Trp-Ahx-Asp-MePhe-NH2 [Hpp(SO3 H)-Ahx-Gly-Trp-Ahx-Asp-MePhe-NH2]
feeding inhibition during the 0.5 hour feeding period: 20-72%
feeding inhibition during the 3 hour feeding period: 50-90%
% FEEDING INHIBITION 0.5 hr: 94%
% FEEDING INHIBITION 3 hr: 96%

CSCC[C@H](NC(=O)[C@H](Cc1ccc(OS(=O)(=O)O)cc1)NC(=O)[C@@H](N)CC(=O)O)C(=O)NCC(=O)N[C@@H](Cc1c[nH]c2ccccc12)C(=O)N[C@H](CCSC)C(=O)N[C@@H](CC(=O)O)C(=O)N[C@@H](Cc1ccccc1)C(N)=O [H-Asp-Tyr(SO3 H)-Met-Gly-Trp-DMet-Asp-Phe-NH2]
% FEEDING INHIBITION 0.5 hr (values marked *): 30%

CSCC[C@H](NC(=O)[C@H](Cc1ccc(OS(=O)(=O)O)cc1)NC(=O)[C@@H](N)CC(=O)O)C(=O)NCC(=O)N[C@H](Cc1c[nH]c2ccccc12)C(=O)N[C@@H](CCSC)C(=O)N[C@@H](CC(=O)O)C(=O)N[C@@H](Cc1ccccc1)C(N)=O [H-Asp-Tyr(SO3 H)-Met-Gly-DTrp-Met-Asp-Phe-NH2]
% FEEDING INHIBITION 0.5 hr (values marked *): 42%

CSCC[C@H](NC(=O)[C@H](Cc1c[nH]c2ccccc12)NC(=O)CN(C)C(=O)[C@H](CCSC)NC(=O)[C@H](Cc1ccc(OS(=O)(=O)O)cc1)NC(=O)[C@@H](N)CC(=O)O)C(=O)N[C@@H](CC(=O)O)C(=O)N[C@@H](Cc1ccccc1)C(N)=O [H-Asp-Tyr(SO3 H)-Met-Sar-Trp-Met-Asp-Phe-NH2]
% FEEDING INHIBITION 0.5 hr (values marked *): 55%

CC(C)C[C@H](NC(=O)[C@H](Cc1ccc(OS(=O)(=O)O)cc1)NC(=O)[C@@H](N)CC(=O)O)C(=O)NCC(=O)N[C@@H](Cc1c[nH]c2ccccc12)C(=O)N[C@@H](CC(C)C)C(=O)N[C@@H](CC(=O)O)C(=O)N[C@@H](Cc1ccccc1)C(N)=O [H-Asp-Tyr(SO3 H)-Leu-Gly-Trp-Leu-Asp-Phe-NH2]
% FEEDING INHIBITION 0.5 hr: 89%
% FEEDING INHIBITION 3 hr: 24%

Suc-Tyr(SO3 ° H)-Ahx-Gly-Trp-Ahx-Asp-MePhe-NH2
feeding inhibition during the 0.5 hour feeding period: 20-72%
feeding inhibition during the 3 hour feeding period: 50-90%
% FEEDING INHIBITION 0.5 hr: 100%
% FEEDING INHIBITION 3 hr: 98%

H-Asp-Tyr(SO3 H)-Met-Gly-Trp-Met-Asp-Tyr-NH2 (H-D[sY]MGWMDY-NH2; not fully specified)
% FEEDING INHIBITION 0.5 hr (values marked *): 23%

CSCC[C@H](NC(=O)[C@H](Cc1ccc(OS(=O)(=O)O)cc1)NC(=O)[C@@H](N)CC(=O)O)C(=O)NCC(=O)N[C@@H](Cc1c[nH]c2ccccc12)C(=O)N[C@@H](CCSC)C(=O)N[C@@H](CC(=O)O)C(=O)N[C@H](Cc1ccccc1)C(N)=O [H-Asp-Tyr(SO3 H)-Met-Gly-Trp-Met]
% FEEDING INHIBITION 0.5 hr: 46%
% FEEDING INHIBITION 3 hr (values marked *): 14%

CSCC[C@H](NC(=O)[C@H](Cc1ccc(OS(=O)(=O)O)cc1)NC=O)C(=O)NCC(=O)N[C@@H](Cc1c[nH]c2ccccc12)C(=O)N[C@@H](CCSC)C(=O)N[C@@H](CC(=O)O)C(=O)N[C@@H](Cc1ccccc1)C(N)=O [For-Tyr(SO3 H)-Met-Gly-Trp-Met-Asp-Phe-NH2] (HELM PEPTIDE1{[O=C[*:2]].[O=C([C@H](Cc1ccc(OS(=O)(=O)O)cc1)N[*:1])[*:2]].M.G.W.M.D.F.[am]}$$$$V2.0)
% FEEDING INHIBITION 0.5 hr: 100%
% FEEDING INHIBITION 3 hr: 66%

CSCC[C@H](NC(=O)[C@H](Cc1c[nH]c2ccccc12)NC(=O)CNC(=O)[C@H](CCSC)NC(=O)[C@@H](N)Cc1ccc(OS(=O)(=O)O)cc1)C(=O)N[C@@H](CC(=O)O)C(=O)N[C@@H](Cc1ccccc1)C(N)=O [H-Try(SO3 H)-Met-Gly-Trp-Met-Asp-Phe-NH2, H-Tyr(SO3 H)-Met-Gly-Trp-Met-Asp-Phe-NH2] (HELM PEPTIDE1{[N[C@@H](Cc1ccc(OS(=O)(=O)O)cc1)C(=O)[*:2]].M.G.W.M.D.F.[am]}$$$$V2.0)
% FEEDING INHIBITION 0.5 hr: 50%
% FEEDING INHIBITION 3 hr (values marked *): 30%

CSCC[C@H](NC(=O)[C@H](Cc1ccc(OS(=O)(=O)O)cc1)NC(=O)[C@@H](N)CC(=O)O)C(=O)NCC(=O)N[C@@H](Cc1c[nH]c2ccccc12)C(=O)N[C@@H](CCSC)C(=O)N[C@@H](CC(=O)O)C(=O)N[C@@H](Cc1ccccc1)C(N)=O [CCK-8, Asp-Tyr(SO3 H)-Met-Gly-Trp-Met-Asp-Phe-NH2, reference compound]
% FEEDING INHIBITION 0.5 hr: 70%
% FEEDING INHIBITION 3 hr: 25%

Suc-Tyr(SO3 H)-Ile-Gly-Trp-Ahx-Asp-MePhe-NH2
feeding inhibition during the 0.5 hour feeding period: 20-72%
feeding inhibition during the 3 hour feeding period: 50-90% and 90%
% FEEDING INHIBITION 0.5 hr: 100%
% FEEDING INHIBITION 3 hr: 100%

H-Asp-Tyr(SO3 H)-Ahx-Gly-Trp-Ahx-Asp-Phe-NH2
% FEEDING INHIBITION 0.5 hr: 82%
% FEEDING INHIBITION 3 hr: 27%
